In brackets after ≈: the same amount, converted by molar mass.
Tests used:
Botrytis cinerea [1] = test: Fungicidal activity against Botryotinia fuckeliana assessed as inhibition of mycelial growth measured after 72 hr; assay type: functional, organism-based
Botrytis cinerea [2] = test: Fungicidal activity against Botryotinia fuckeliana assessed as inhibition of spore germination measured after 24 hr; assay type: functional, organism-based
Botrytis cinerea [3] = test: Fungicidal activity against Botryotinia fuckeliana assessed as germ-tube elongation inhibition at 50 ug/ml measured after 24 hr; assay type: functional
Botrytis cinerea [4] = test: Fungicidal activity against Botryotinia fuckeliana in 2 hr compound pretreated cucumber seedling assessed as inhibition of spot diameter squared as control efficiency at 200 ug/ml measured after 72 hr; assay type: functional; set-up: scale not given: the % may be the effect or the level left

CC1(C)CC(=O)C(S(=O)(=O)Nc2ccc(Br)cc2)=C(Nc2ccc(Br)cc2)C1
EC50 (Botrytis cinerea [1]): 39.1 µg/mL (≈ 74.1 µM)
EC50 (Botrytis cinerea [2]): 1.44 µg/mL (≈ 2.73 µM)
EC80 (Botrytis cinerea [2]): 7.39 µg/mL (≈ 14 µM)
inhibition at 50 µg/mL (Botrytis cinerea [3]): 67.9%
Activity (Botrytis cinerea [4]): 45.09%

Cc1ccccc1NC1=C(S(=O)(=O)Nc2ccccc2C)C(=O)CC(C)(C)C1
EC50 (Botrytis cinerea [1]): 8.05 µg/mL (≈ 20.2 µM)
EC50 (Botrytis cinerea [2]): 19.5 µg/mL (≈ 49 µM)
EC80 (Botrytis cinerea [2]): 140 µg/mL (≈ 352 µM)
inhibition at 50 µg/mL (Botrytis cinerea [3]): 57.2%
Activity (Botrytis cinerea [4]): 64.43%

CC1(C)CC(=O)C(S(=O)(=O)Nc2ccccc2)=C(Nc2ccccc2)C1
EC50 (Botrytis cinerea [1]): 147 µg/mL (≈ 398 µM)
EC50 (Botrytis cinerea [2]): 96.6 µg/mL (≈ 261 µM)
EC80 (Botrytis cinerea [2]): > 200 µg/mL
inhibition at 50 µg/mL (Botrytis cinerea [3]): 21.4%
Activity (Botrytis cinerea [4]): 61.17%

CC12CC1(C)C(=O)N(c1cc(Cl)cc(Cl)c1)C2=O (stereo not given) [PROCYMIDONE]
EC50 (Botrytis cinerea [1]): 0.63 µg/mL (≈ 2.22 µM)
EC50 (Botrytis cinerea [2]): 0.98 µg/mL (≈ 3.45 µM)
EC80 (Botrytis cinerea [2]): 3.18 µg/mL (≈ 11.2 µM)
inhibition at 50 µg/mL (Botrytis cinerea [3]): 100%
Activity (Botrytis cinerea [4]): 80.39%

CCCNC1=C(S(=O)(=O)NCCC)C(=O)CC(C)(C)C1
EC50 (Botrytis cinerea [1]): 149 µg/mL (≈ 494 µM)
EC50 (Botrytis cinerea [2]): 0.23 µg/mL (≈ 0.76 µM)
EC80 (Botrytis cinerea [2]): 15.6 µg/mL (≈ 51.7 µM)
inhibition at 50 µg/mL (Botrytis cinerea [3]): 51.2%
Activity (Botrytis cinerea [4]): 66.59%

CC1(C)CC(=O)C(S(=O)(=O)NCc2ccccc2)=C(NCc2ccccc2)C1
EC50 (Botrytis cinerea [1]): 26.4 µg/mL (≈ 66.2 µM)
EC50 (Botrytis cinerea [2]): 73.4 µg/mL (≈ 184 µM)
EC80 (Botrytis cinerea [2]): 139 µg/mL (≈ 349 µM)
inhibition at 50 µg/mL (Botrytis cinerea [3]): 28.6%
Activity (Botrytis cinerea [4]): 42.16%

CC1(C)CC(=O)C(S(=O)(=O)Nc2cccc(Cl)c2)=C(Nc2cccc(Cl)c2)C1
EC50 (Botrytis cinerea [1]): 32.7 µg/mL (≈ 74.4 µM)
EC50 (Botrytis cinerea [2]): 3.03 µg/mL (≈ 6.9 µM)
EC80 (Botrytis cinerea [2]): 128 µg/mL (≈ 290 µM)
inhibition at 50 µg/mL (Botrytis cinerea [3]): 58.6%
Activity (Botrytis cinerea [4]): 58.51%

O=C1CCCC(Nc2ccc(Cl)cc2)=C1S(=O)(=O)Nc1ccc(Cl)cc1
EC50 (Botrytis cinerea [1]): 125 µg/mL (≈ 305 µM)
EC50 (Botrytis cinerea [2]): 0.26 µg/mL (≈ 0.632 µM)
EC80 (Botrytis cinerea [2]): > 200 µg/mL
inhibition at 50 µg/mL (Botrytis cinerea [3]): 61.3%
Activity (Botrytis cinerea [4]): 53.57%

CC1(C)CC(=O)C(S(=O)(=O)Nc2ccc(Cl)c(Cl)c2)=C(Nc2ccc(Cl)c(Cl)c2)C1
EC50 (Botrytis cinerea [1]): 67.7 µg/mL (≈ 133 µM)
EC50 (Botrytis cinerea [2]): 2.66 µg/mL (≈ 5.23 µM)
EC80 (Botrytis cinerea [2]): 12.3 µg/mL (≈ 24.2 µM)
inhibition at 50 µg/mL (Botrytis cinerea [3]): 64.3%
Activity (Botrytis cinerea [4]): 69.77%

O=C1CCCC(Nc2ccccc2Cl)=C1S(=O)(=O)Nc1ccccc1Cl
EC50 (Botrytis cinerea [1]): 10.6 µg/mL (≈ 25.7 µM)
EC50 (Botrytis cinerea [2]): 0.37 µg/mL (≈ 0.9 µM)
EC80 (Botrytis cinerea [2]): 60.9 µg/mL (≈ 148 µM)
inhibition at 50 µg/mL (Botrytis cinerea [3]): 81.9%
Activity (Botrytis cinerea [4]): 74.81%

CC1(C)CC(=O)C(S(=O)(=O)Nc2ccc(Cl)cc2C(F)(F)F)=C(Nc2ccc(Cl)cc2C(F)(F)F)C1
EC50 (Botrytis cinerea [1]): 154 µg/mL (≈ 268 µM)
EC50 (Botrytis cinerea [2]): 6.14 µg/mL (≈ 10.7 µM)
EC80 (Botrytis cinerea [2]): > 200 µg/mL
inhibition at 50 µg/mL (Botrytis cinerea [3]): 51.1%
Activity (Botrytis cinerea [4]): 47.92%

CC1(C)CC(=O)C(S(=O)(=O)NC2CCCCC2)=C(NC2CCCCC2)C1
EC50 (Botrytis cinerea [1]): 63.7 µg/mL (≈ 167 µM)
EC50 (Botrytis cinerea [2]): 0.64 µg/mL (≈ 1.67 µM)
EC80 (Botrytis cinerea [2]): 15.4 µg/mL (≈ 40.3 µM)
inhibition at 50 µg/mL (Botrytis cinerea [3]): 61.5%
Activity (Botrytis cinerea [4]): 82.21%

Cc1ccc(NC2=C(S(=O)(=O)Nc3ccc(C)cc3)C(=O)CCC2)cc1
EC50 (Botrytis cinerea [1]): 47.4 µg/mL (≈ 128 µM)
EC50 (Botrytis cinerea [2]): 0.54 µg/mL (≈ 1.46 µM)
EC80 (Botrytis cinerea [2]): 117 µg/mL (≈ 315 µM)
inhibition at 50 µg/mL (Botrytis cinerea [3]): 20.5%
Activity (Botrytis cinerea [4]): 57.48%

CC1(C)CC(=O)C(S(=O)(=O)Nc2ccccc2Cl)=C(Nc2ccccc2Cl)C1
EC50 (Botrytis cinerea [1]): 21.2 µg/mL (≈ 48.2 µM)
EC50 (Botrytis cinerea [2]): 0.34 µg/mL (≈ 0.774 µM)
EC80 (Botrytis cinerea [2]): 4.53 µg/mL (≈ 10.3 µM)
inhibition at 50 µg/mL (Botrytis cinerea [3]): 85.7%
Activity (Botrytis cinerea [4]): 73.39%

CC1(C)CC(=O)C(S(=O)(=O)Nc2cccc(C(F)(F)F)c2)=C(Nc2cccc(C(F)(F)F)c2)C1
EC50 (Botrytis cinerea [1]): 156 µg/mL (≈ 308 µM)
EC50 (Botrytis cinerea [2]): 0.16 µg/mL (≈ 0.316 µM)
EC80 (Botrytis cinerea [2]): 14.2 µg/mL (≈ 27.9 µM)
inhibition at 50 µg/mL (Botrytis cinerea [3]): 30.6%
Activity (Botrytis cinerea [4]): 67.74%

Cc1cc(F)ccc1NC1=C(S(=O)(=O)Nc2ccc(F)cc2C)C(=O)CC(C)(C)C1
EC50 (Botrytis cinerea [1]): 45.7 µg/mL (≈ 105 µM)
EC50 (Botrytis cinerea [2]): 1.59 µg/mL (≈ 3.66 µM)
EC80 (Botrytis cinerea [2]): > 200 µg/mL
inhibition at 50 µg/mL (Botrytis cinerea [3]): 42.9%
Activity (Botrytis cinerea [4]): 73.46%

CC1(C)CC(=O)C(S(=O)(=O)Nc2cc(C(F)(F)F)cc(C(F)(F)F)c2)=C(Nc2cc(C(F)(F)F)cc(C(F)(F)F)c2)C1
EC50 (Botrytis cinerea [1]): 92.2 µg/mL (≈ 144 µM)
EC50 (Botrytis cinerea [2]): 0.51 µg/mL (≈ 0.794 µM)
EC80 (Botrytis cinerea [2]): 34.8 µg/mL (≈ 54.2 µM)
inhibition at 50 µg/mL (Botrytis cinerea [3]): 61.5%
Activity (Botrytis cinerea [4]): 75.29%

CC1(C)CC(=O)C(S(=O)(=O)Nc2ccc(Cl)cc2)=C(Nc2ccc(Cl)cc2)C1
EC50 (Botrytis cinerea [1]): 128 µg/mL (≈ 290 µM)
EC50 (Botrytis cinerea [2]): 0.54 µg/mL (≈ 1.23 µM)
EC80 (Botrytis cinerea [2]): 7.04 µg/mL (≈ 16 µM)
inhibition at 50 µg/mL (Botrytis cinerea [3]): 78.6%
Activity (Botrytis cinerea [4]): 65.89%

Cc1ccc(NC2=C(S(=O)(=O)Nc3ccc(C)cc3)C(=O)CC(C)(C)C2)cc1
EC50 (Botrytis cinerea [1]): 22.8 µg/mL (≈ 57.2 µM)
EC50 (Botrytis cinerea [2]): 3.29 µg/mL (≈ 8.26 µM)
EC80 (Botrytis cinerea [2]): 72.1 µg/mL (≈ 181 µM)
inhibition at 50 µg/mL (Botrytis cinerea [3]): 57.2%
Activity (Botrytis cinerea [4]): 58.6%
